{"source": "patent US20260055138A1", "about": "“CARRIER PEPTIDE FRAGMENT AND USE THEREOF” (TOAGOSEI CO., LTD., priority 2022, published 2026)", "note": "Primed or numbered codes have the meaning given here. [ ]: non-standard residue; d: D form. FAM = 5(6)-carboxyfluorescein; FAM″ = C-terminal FAM"}
{"test_system": "HeLa cells", "assay": "Evaluation of cell membrane permeability by flow cytometry", "assay_type": "cell-based, human", "details": "10 μM, 20 hours, compared with Example 15", "experimental": "(§1) As the eukaryotic cells, HeLa cells (established cell strain derived from a human cervical cancer cell) were used and the cell membrane permeability of the samples 1 to 15 was analyzed. In Examples 1 to 15, the prepared sample solutions 1 to 15 were used, respectively, and in Example 16, the FAM solution was used.\n(§2) The HeLa cell was cultured in 10% fetal bovine serum (FBS)-containing Dulbecco's modified Eagle's medium (DMEM (Cat No. 044-29765, manufactured by FUJIFILM Wako Pure Chemical Corporation)), which is a culture medium.\n(§3) The HeLa cell that adhered to a culture plate was cleaned with PBS and then, a 0.25%-trypsin/EDTA solution was added thereto, and incubation was performed for three minutes at 37° C. After the incubation, the aforementioned 10% FBS-containing DMEM was added to deactivate trypsin and then, five-minute centrifugal separation was performed at 150×g to precipitate the cells. After the supernatant generated by the centrifugal separation was removed, the 10% FBS-containing DMEM was added to the precipitate (cell pellet) to prepare a cell suspension of about 2×10^5 cells/mL. The cell suspension was added by 1 mL to a well of a commercially available six-hole (well) plate (manufactured by AGC TECHNO GLASS Co., Ltd.) so as to seed the cell (about 2×10^5 cells/well). In addition, the 2 mM sample solution 1 was diluted with the 10% FBS-containing DMEM to prepare the sample solution 1 in which the concentration of the sample 1 was 20 μM. Then, 1 mL of the 20 μM sample solution 1 was added to the well (that is, so that the concentration of the sample 1 became 10 μM and the DMSO concentration became 0.5% in the culture solution in the well). After that, the cell was incubated for 20 hours at 37° C. under a 5% CO2 condition.\n(§4) After the 20-hour incubation, the culture supernatant was removed from the well and the cells in the well were cleaned twice with 1 mL of PBS. Next, 200 μL of the 0.25% trypsin/EDTA solution was added to the well and the incubation was performed for three minutes at 37° C. After the incubation, 400 μL of the 10% FBS-containing DMEM was added to the well to deactivate the trypsin. Subsequently, the cell suspension in the well was transferred to a tube and the cells were collected. After that, 600 μL of PBS was added further to the well to clean the well. Then, PBS in the well was transferred to the tube, so that the cells remaining in the well were collected in the tube. This tube was subjected to five-minute centrifugal separation at 4° C. under a condition of 210×g. After the centrifugal separation, the supernatant was removed and the precipitate (cell pellet) was suspended (cleaned) with 1 mL of PBS, which was followed by the centrifugal separation under the same condition as that described above. After this operation was repeated twice, the supernatant was removed and thus, the cells (cell pellet) cultured in a culture medium containing the sample 1 were obtained.\n(§5) Regarding the obtained cells (cell pellet), the cell membrane permeability of the sample 1 was analyzed using a flow cytometer. As the flow cytometer, On-Chip Flowcytometer (manufactured by On-Chip Biotechnologies Co., LTD.) was used.\n(§6) For such an analysis, the obtained cell pellet was suspended with 100 μL of on-chip T buffer to prepare a cell suspension for analysis.\n(§7) Using the aforementioned flow cytometer, gating based on forward scatter (FSC) and side scatter (SSC) was performed to set a gate about a cell group to be analyzed, and the fluorescence intensity was measured about the cell group in this gate. Note that the analysis was performed so that the cell group contained at least 10000 cells. The fluorescence intensity was measured using a fluorescence detector FL2 of the flow cytometer (optimum detection wavelength around 543 nm) capable of detecting the fluorescence wavelength of FAM. […]"}
{"substance": "Ac-KKRTLRKSNRKkR-FAM [Example 12]", "value of MFI, comparison in words": "high in particular"}
{"test_system": "HeLa cells", "assay": "Evaluation of cell membrane permeability by flow cytometry", "assay_type": "cell-based, human", "details": "construct (additive) 10 μM, 0.5% DMSO in culture solution, 20 hours incubation at 37° C., FAM fluorescence, detector FL2", "experimental": "as §1, §2, §3, §4, §5, §6, §7"}
{"substance": "Ac-KKRTlRKSNRKKR-FAM (Ac-KKRT[dL]RKSNRKKR-{FAM″}) [Example 5]", "MFI (median fluorescence intensity)": 16.5}
{"substance": "Ac-KKRTLRKSNrKKR-FAM (Ac-KKRTLRKSN[dR]KKR-{FAM″}) [Example 10]", "MFI (median fluorescence intensity)": 15.5}
{"substance": "Ac-KKRTLRKsNRKKR-FAM (Ac-KKRTLRK[dS]NRKKR-{FAM″}) [Example 8]", "MFI (median fluorescence intensity)": 14.3}
{"substance": "Ac-KKRTLRKSNRKKR-FAM [Example 15] (Ac-KKRTLRKSNRKKR-{FAM″}) [reference compound]", "MFI (median fluorescence intensity)": 13.0}
{"substance": "Ac-KKRTLRKSNRKKr-FAM (Ac-KKRTLRKSNRKK[dR]-{FAM″}) [Example 13]", "MFI (median fluorescence intensity)": 15.2}
{"substance": "Ac-KKRTLRKSNRkKR-FAM (Ac-KKRTLRKSNR[dK]KR-{FAM″}) [Example 11]", "MFI (median fluorescence intensity)": 17.4}
{"substance": "Ac-KKRTLRKSNRKkR-FAM [Example 12]", "MFI (median fluorescence intensity)": 33.8}
{"substance": "5(6)-carboxyfluorescein [Example 16, reference compound]", "MFI (median fluorescence intensity)": 10.6}
{"substance": "Ac-KKRtLRKSNRKKR-FAM (Ac-KKR[dT]LRKSNRKKR-{FAM″}) [Example 4]", "MFI (median fluorescence intensity)": 15.9}
{"substance": "Ac-kKRTLRKSNRKKR-FAM (Ac-[dK]KRTLRKSNRKKR-{FAM″}) [Example 1]", "MFI (median fluorescence intensity)": 13.9}
{"substance": "Ac-KKRTLRKSNRKKR-FAM [Example 7] (Ac-KKRTLR[dK]SNRKKR-{FAM})", "MFI (median fluorescence intensity)": 16.9}
{"substance": "Ac-KKRTLrKSNRKKR-FAM [Example 6]", "MFI (median fluorescence intensity)": 17.5}
{"substance": "Ac-KkRTLRKSNRKKR-FAM (Ac-K[dK]RTLRKSNRKKR-{FAM″}) [Example 2]", "MFI (median fluorescence intensity)": 14.1}
{"substance": "Ac-KKrTLRKSNRKKR-FAM (Ac-KK[dR]TLRKSNRKKR-{FAM″}) [Example 3]", "MFI (median fluorescence intensity)": 13.9}
{"substance": "Ac-kkrtlrksnrkkr-FAM (Ac-[dK][dK][dR][dT][dL][dR][dK][dS][dN][dR][dK][dK][dR]-{FAM″}) [Example 14]", "MFI (median fluorescence intensity)": 16.1}
{"substance": "Ac-KKRTLRKSnRKKR-FAM (Ac-KKRTLRKS[dN]RKKR-{FAM″}) [Example 9]", "MFI (median fluorescence intensity)": 15.6}
